From US20150018311A1, “THERAPEUTIC BORON-CONTAINING COMPOUNDS” (priority 2012, published 2015)

Columns and labels:
Assay type in all cases: cell-based
[1] = test system: Staphylococcus aureus (ATCC 25923); assay: Growth in liquid media in presence of test compound
[2] = test system: Pseudomonas aeruginosa (ATCC 27853); assay: as above
[3] = test system: Escherichia coli (ATCC 25922); assay: as above
[4] = test system: Mycobacterium tuberculosis (H37Rv); assay: as above
[5] = test system: E. faecalis; assay: as above
Description: The strains were grown at 37° C. and after suitable cell concentrations had been reached, 100 μL of each cell suspension was added to a tube with growth media and test compound. Cultivation of the bacteria was then carried out in the presence of each test compound at 37° C. and the tubes examined for visible growth. The compounds were tested at concentrations of either 500 mg/l, 50 mg/l or 5 mg/l. This assay was repeated twice.
Some compounds were only tested against some test organisms. It will be appreciated that the charge of these molecules will depend on the environment, some of the Examples are shown with a suitable counter ion, some without.

[6] = test system: Streptococcus pyogenes (ATCC 19615); assay: as above
[7] = test system: Candida albicans (ATCC 90028); assay: as above
[8] = test system: Candida albicans ATCC90028 (wild type); assay: Filter paper disc antifungal assay on agar plates; details: 5 mm disc, 37° C. 24 hours
Description: (§1) Compound 22 (the chloride salt) of table 1 was dissolved and the solution applied to a filter paper disc of diameter 5 mm. The filter paper discs were placed on plates containing the following strains of Candida albicans:
ATCC90028 (“wild type”, i.e. not resistant to nystatin or fluconazole)
(§2) The compound was applied at concentrations of 0.5, 1, 5, 10, 25 and 50 μg/ml. Nystatin and fluconazole at the same concentrations were applied in the same manner. […] All strains were tested at least three times.
(§3) Clearly, the higher the number, the greater the antifungal activity.

[9] = test system: Candida albicans ATCC38247 (resistant to fluconazole); assay: Filter paper disc antifungal assay on agar plates; details: 5 mm disc, 37° C. 24 hours
Description: as §1
ATCC38247 (resistant to fluconazole)
as §2, §3

[10] = test system: Candida albicans MYA576 (resistant to nystatin); assay: Filter paper disc antifungal assay on agar plates; details: 5 mm disc, 37° C. 24 hours
Description: as §1
MYA576 (resistant to nystatin).
as §2, §3

CC1(C)C2CC3OB(CC(Cc4ccccc4)NC(=O)C(N)CCCCN)OC3(C)C1C2 (stereo not drawn) [Compound 1]
−: Growth in the presence of test compound, S. aureus ([1]; 500 mg/L) | Growth in the presence of test compound, E. coli ([3]; 500 mg/L) | Growth in the presence of test compound, M. tuberculosis ([4]; 5 mg/L) | Growth in the presence of test compound, M. tuberculosis ([4]; 50 mg/L) | Growth in the presence of test compound, M. tuberculosis ([4]; 500 mg/L) | Growth in the presence of test compound, E. faecalis ([5]; 500 mg/L)
±: Growth in the presence of test compound, P. aeruginosa ([2]; 500 mg/L)
+: Growth in the presence of test compound, S. aureus ([1]; 5 mg/L) | Growth in the presence of test compound, S. aureus ([1]; 50 mg/L) | Growth in the presence of test compound, P. aeruginosa ([2]; 5 mg/L) | Growth in the presence of test compound, P. aeruginosa ([2]; 50 mg/L) | Growth in the presence of test compound, E. coli ([3]; 5 mg/L) | Growth in the presence of test compound, E. coli ([3]; 50 mg/L) | Growth in the presence of test compound, E. faecalis ([5]; 5 mg/L) | Growth in the presence of test compound, E. faecalis ([5]; 50 mg/L)

NCCCCC(N)C(=O)NC(CB(O)O)Cc1ccccc1 (stereo not drawn) [Compound 34]
−: Growth in the presence of test compound, S. aureus ([1]; 500 mg/L) | Growth in the presence of test compound, P. aeruginosa ([2]; 500 mg/L) | Growth in the presence of test compound, E. coli ([3]; 500 mg/L) | Growth in the presence of test compound, M. tuberculosis ([4]; 50 mg/L) | Growth in the presence of test compound, M. tuberculosis ([4]; 500 mg/L) | Growth in the presence of test compound, E. faecalis ([5]; 500 mg/L)
+: Growth in the presence of test compound, S. aureus ([1]; 5 mg/L) | Growth in the presence of test compound, S. aureus ([1]; 50 mg/L) | Growth in the presence of test compound, P. aeruginosa ([2]; 5 mg/L) | Growth in the presence of test compound, P. aeruginosa ([2]; 50 mg/L) | Growth in the presence of test compound, E. coli ([3]; 5 mg/L) | Growth in the presence of test compound, E. coli ([3]; 50 mg/L) | Growth in the presence of test compound, M. tuberculosis ([4]; 5 mg/L) | Growth in the presence of test compound, E. faecalis ([5]; 5 mg/L) | Growth in the presence of test compound, E. faecalis ([5]; 50 mg/L)

CC1(C)C2CC3OB(CC(Cc4ccccc4)NC(=O)C(N)CCCCN)OC3(C)C1C2 (stereo not drawn) [Compound 54]
−: Growth in the presence of test compound, S. pyogenes ([6]; 500 mg/L) | Growth in the presence of test compound, S. aureus ([1]; 500 mg/L) | Growth in the presence of test compound, C. albicans ([7]; 500 mg/L) | Growth in the presence of test compound, P. aeruginosa ([2]; 500 mg/L) | Growth in the presence of test compound, E. coli ([3]; 500 mg/L) | Growth in the presence of test compound, M. tuberculosis ([4]; 500 mg/L)
+: Growth in the presence of test compound, S. pyogenes ([6]; 5 mg/L) | Growth in the presence of test compound, S. pyogenes ([6]; 50 mg/L) | Growth in the presence of test compound, S. aureus ([1]; 5 mg/L) | Growth in the presence of test compound, S. aureus ([1]; 50 mg/L) | Growth in the presence of test compound, C. albicans ([7]; 5 mg/L) | Growth in the presence of test compound, C. albicans ([7]; 50 mg/L) | Growth in the presence of test compound, P. aeruginosa ([2]; 5 mg/L) | Growth in the presence of test compound, P. aeruginosa ([2]; 50 mg/L) | Growth in the presence of test compound, E. coli ([3]; 5 mg/L) | Growth in the presence of test compound, E. coli ([3]; 50 mg/L) | Growth in the presence of test compound, M. tuberculosis ([4]; 5 mg/L) | Growth in the presence of test compound, M. tuberculosis ([4]; 50 mg/L)

CC1(C)C2CC3OB([C@@H](CNC(=O)[C@@H](N)Cc4ccccc4)Cc4ccc(OC(F)(F)F)cc4)O[C@]3(C)C1C2.Cl (stereo partly drawn) [Compound 55]
−: Growth in the presence of test compound, M. tuberculosis ([4]; 5 mg/L) | Growth in the presence of test compound, M. tuberculosis ([4]; 50 mg/L) | Growth in the presence of test compound, M. tuberculosis ([4]; 500 mg/L)
+: Growth in the presence of test compound, S. pyogenes ([6]; 5 mg/L) | Growth in the presence of test compound, S. pyogenes ([6]; 500 mg/L) | Growth in the presence of test compound, S. aureus ([1]; 5 mg/L) | Growth in the presence of test compound, S. aureus ([1]; 500 mg/L) | Growth in the presence of test compound, C. albicans ([7]; 5 mg/L) | Growth in the presence of test compound, C. albicans ([7]; 50 mg/L) | Growth in the presence of test compound, P. aeruginosa ([2]; 5 mg/L) | Growth in the presence of test compound, P. aeruginosa ([2]; 50 mg/L) | Growth in the presence of test compound, P. aeruginosa ([2]; 500 mg/L) | Growth in the presence of test compound, E. coli ([3]; 5 mg/L) | Growth in the presence of test compound, E. coli ([3]; 50 mg/L) | Growth in the presence of test compound, E. coli ([3]; 500 mg/L)
±: Growth in the presence of test compound, S. pyogenes ([6]; 50 mg/L) | Growth in the presence of test compound, S. aureus ([1]; 50 mg/L) | Growth in the presence of test compound, C. albicans ([7]; 500 mg/L)

C[C@H](N)C(=O)NC[C@@H](Cc1ccc(OC(F)(F)F)cc1)B1OC2CC3CC(C3(C)C)[C@@]2(C)O1.Cl (stereo partly drawn) [Compound 56]
+: Growth in the presence of test compound, S. pyogenes ([6]; 5 mg/L) | Growth in the presence of test compound, S. pyogenes ([6]; 500 mg/L) | Growth in the presence of test compound, S. aureus ([1]; 5 mg/L) | Growth in the presence of test compound, S. aureus ([1]; 500 mg/L) | Growth in the presence of test compound, C. albicans ([7]; 5 mg/L) | Growth in the presence of test compound, P. aeruginosa ([2]; 5 mg/L) | Growth in the presence of test compound, P. aeruginosa ([2]; 50 mg/L) | Growth in the presence of test compound, P. aeruginosa ([2]; 500 mg/L) | Growth in the presence of test compound, E. coli ([3]; 5 mg/L) | Growth in the presence of test compound, E. coli ([3]; 50 mg/L) | Growth in the presence of test compound, E. coli ([3]; 500 mg/L) | Growth in the presence of test compound, M. tuberculosis ([4]; 5 mg/L)
−: Growth in the presence of test compound, S. pyogenes ([6]; 50 mg/L) | Growth in the presence of test compound, M. tuberculosis ([4]; 50 mg/L) | Growth in the presence of test compound, M. tuberculosis ([4]; 500 mg/L)
±: Growth in the presence of test compound, S. aureus ([1]; 50 mg/L) | Growth in the presence of test compound, C. albicans ([7]; 50 mg/L) | Growth in the presence of test compound, C. albicans ([7]; 500 mg/L)

Cl.N[C@@H](Cc1ccccc1)C(=O)NC[C@@H](Cc1ccc(OC(F)(F)F)cc1)B(O)O [Compound 57]
−: Growth in the presence of test compound, S. pyogenes ([6]; 500 mg/L) | Growth in the presence of test compound, C. albicans ([7]; 500 mg/L) | Growth in the presence of test compound, P. aeruginosa ([2]; 500 mg/L) | Growth in the presence of test compound, M. tuberculosis ([4]; 50 mg/L) | Growth in the presence of test compound, M. tuberculosis ([4]; 500 mg/L)
+: Growth in the presence of test compound, S. pyogenes ([6]; 5 mg/L) | Growth in the presence of test compound, S. pyogenes ([6]; 50 mg/L) | Growth in the presence of test compound, S. aureus ([1]; 5 mg/L) | Growth in the presence of test compound, S. aureus ([1]; 50 mg/L) | Growth in the presence of test compound, S. aureus ([1]; 500 mg/L) | Growth in the presence of test compound, C. albicans ([7]; 5 mg/L) | Growth in the presence of test compound, C. albicans ([7]; 50 mg/L) | Growth in the presence of test compound, P. aeruginosa ([2]; 5 mg/L) | Growth in the presence of test compound, P. aeruginosa ([2]; 50 mg/L) | Growth in the presence of test compound, E. coli ([3]; 5 mg/L) | Growth in the presence of test compound, E. coli ([3]; 50 mg/L) | Growth in the presence of test compound, M. tuberculosis ([4]; 5 mg/L)
±: Growth in the presence of test compound, E. coli ([3]; 500 mg/L)

OC(Cn1cncn1)(Cn1cncn1)c1ccc(F)cc1F [Fluconazole, reference compound]
7.33 millimeters: diameter of the area which did not show any Candida growth ([8]; ATCC90028, 0.5 μg/ml)
25.66 millimeters: diameter of the area which did not show any Candida growth ([8]; ATCC90028, 10 μg/ml)
21.33 millimeters: diameter of the area which did not show any Candida growth ([8]; ATCC90028, 5 μg/ml)
5 millimeters: diameter of the area which did not show any Candida growth ([9]; ATCC38247, 0.5 μg/ml) | diameter of the area which did not show any Candida growth ([9]; ATCC38247, 1 μg/ml) | diameter of the area which did not show any Candida growth ([9]; ATCC38247, 5 μg/ml) | diameter of the area which did not show any Candida growth ([9]; ATCC38247, 10 μg/ml) | diameter of the area which did not show any Candida growth ([9]; ATCC38247, 25 μg/ml) | diameter of the area which did not show any Candida growth ([9]; ATCC38247, 50 μg/ml)
31.33 millimeters: diameter of the area which did not show any Candida growth ([8]; ATCC90028, 50 μg/ml)
30 millimeters: diameter of the area which did not show any Candida growth ([8]; ATCC90028, 25 μg/ml)
13.33 millimeters: diameter of the area which did not show any Candida growth ([8]; ATCC90028, 1 μg/ml)

C[C@@H]1[C@H](O)[C@@H](C)/C=C/C=C/CC/C=C/C=C/C=C/C=C/C(O[C@H]2O[C@H](C)[C@@H](O)[C@H](N)[C@@H]2O)CC2O[C@](O)(CC(O)C(O)CCC(O)CC(O)CC(O)CC(=O)O[C@H]1C)CC(O)C2C(=O)O (stereo partly drawn) [Nystatin, reference compound]
14.75 millimeters: diameter of the area which did not show any Candida growth ([8]; ATCC90028, 10 μg/ml)
9 millimeters: diameter of the area which did not show any Candida growth ([10]; MYA576, 50 μg/ml)
20.25 millimeters: diameter of the area which did not show any Candida growth ([8]; ATCC90028, 50 μg/ml)
5 millimeters: diameter of the area which did not show any Candida growth ([10]; MYA576, 0.5 μg/ml) | diameter of the area which did not show any Candida growth ([10]; MYA576, 1 μg/ml) | diameter of the area which did not show any Candida growth ([10]; MYA576, 5 μg/ml)
6.17 millimeters: diameter of the area which did not show any Candida growth ([10]; MYA576, 10 μg/ml)
6.25 millimeters: diameter of the area which did not show any Candida growth ([8]; ATCC90028, 0.5 μg/ml)
9.25 millimeters: diameter of the area which did not show any Candida growth ([8]; ATCC90028, 5 μg/ml)
7.33 millimeters: diameter of the area which did not show any Candida growth ([10]; MYA576, 25 μg/ml)
19.25 millimeters: diameter of the area which did not show any Candida growth ([8]; ATCC90028, 25 μg/ml)
7.25 millimeters: diameter of the area which did not show any Candida growth ([8]; ATCC90028, 1 μg/ml)
